Laboratory results taken from PubChem BioAssay (NCI).
“And” between values parts separate entries of the source, which are not always exact repeats. Equal entries are not always repeated.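 Assay format: 96-well plates, 48-hour exposure. Here, GI50 denotes the concentration required for 50% inhibition of growth. Definition used: TGI = concentration required for complete inhibition of growth.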

What was measured:
Experiment in all cases: NCI anticancer screen, dose series, 48 h
A549 NSCLC = tested on: A549 NSCLC
BT-549 breast = tested on: BT-549 breast
CCRF-CEM leukemia = tested on: CCRF-CEM leukemia
EKVX NSCLC = tested on: EKVX NSCLC
HS 578T breast = tested on: HS 578T breast
NCI-H460 lung = tested on: NCI-H460 lung
PC-3 prostate = tested on: PC-3 prostate
RPMI-8226 leukemia = tested on: RPMI-8226 leukemia
SF-295 CNS = tested on: SF-295 CNS
UACC-257 melanoma = tested on: UACC-257 melanoma

Structure (SMILES)	GI50 (A549 NSCLC)	TGI (A549 NSCLC) [µM]	GI50 (BT-549 breast)	TGI (BT-549 breast)	GI50 (CCRF-CEM leukemia)	TGI (CCRF-CEM leukemia) [µM]	GI50 (EKVX NSCLC) [µM]	TGI (EKVX NSCLC) [µM]	GI50 (HS 578T breast)	TGI (HS 578T breast)	GI50 (NCI-H460 lung)	TGI (NCI-H460 lung) [µM]	GI50 (PC-3 prostate)	TGI (PC-3 prostate) [µM]	GI50 (RPMI-8226 leukemia)	TGI (RPMI-8226 leukemia)	GI50 (SF-295 CNS)	TGI (SF-295 CNS)	GI50 (UACC-257 melanoma)	TGI (UACC-257 melanoma)
Cc1nc(NC(=O)COc2cccc(/C=C3\COc4ccccc4C3=O)c2)sc1C	3.7 µM	12.4	1.59 µM	3.28 µM	3.42 µM	> 100	1.24	3.12	2.72 µM	8.6 µM	3.19 µM	11.3	1.76 µM	4.05	14.8 µM	> 100 µM	1.64 µM	3.33 µM	2.88 µM	8.13 µM
O=C(O[C@H]1CN[C@H](C#Cc2cc3ncnc(Nc4ccc(Cc5ccccc5)cc4)c3s2)C1)N1CCOCC1	4.86 µM	> 25	4.74 µM	10.6 µM	6.98 µM	> 25	1.94	> 25	3.06 µM	> 21.7 µM	7.52 µM	> 25	8.56 µM	> 25	6.47 µM	24.9 µM	> 13.6 µM	> 25 µM	5.46 µM	> 22.1 µM
COc1ccc(S(=O)(=O)Nc2cc(/C=C\c3cc(OC)c(OC)c(OC)c3)cc(OC)c2OC)cc1OC	1.31 µM	> 100	0.664 µM	90.1 µM	0.349 µM	> 100	3.6	> 100	3.42 µM	> 100 µM	0.399 µM	> 100	0.374 µM	> 100	0.567 µM	> 100 µM	0.47 µM	55.6 µM	27 µM	> 100 µM
O=C1OCC2=C1C(c1ccccc1)c1cc3c(cc1N2CCO)CCC3 (stereo not drawn)	0.152 µM	> 25	0.223 µM	> 25 µM	0.117 µM	> 25	1.16	> 25	0.0739 µM		0.09 µM	3.51	0.0986 µM	> 25	0.106 µM	> 25 µM	0.0677 µM		0.0862 µM	> 25 µM
CCOc1ccc(/C=N/Nc2cc(C)nc3ccc(Cl)cc23)cc1	2 µM	3.72	1.61 µM	3.15 µM	1.47 µM	3.76	2.18	5.25	2.15 µM	4.67 µM	2.06 µM	4.27	1.51 µM	3.14	1.94 µM	4.32 µM	1.76 µM	3.24 µM	1.81 µM	3.32 µM
CNC(=O)c1cc(Oc2ccc3nc(NC(=O)c4cc(C(F)(F)F)cc(C(F)(F)F)c4)sc3c2)ccn1	3.99 µM	14.6	3.05 µM	12.4 µM	3.47 µM	> 100	3.43	23.3	3.15 µM	13.3 µM	3.83 µM	14.6	2.53 µM	12.8	2.42 µM	> 100 µM	2.56 µM	10.5 µM	2.89 µM	8.12 µM
CCCCCCCCCCCCCCCCCC(=O)[O][Sn]([CH2]CCC)([CH2]CCC)[CH2]CCC	0.153 µM	0.317	0.138 µM	0.287 µM	0.17 µM		0.0713	0.297	0.217 µM	0.752 µM	0.109 µM	0.251	0.18 µM	0.463	0.139 µM	0.602 µM	0.162 µM	0.435 µM	0.144 µM	0.293 µM
COC(=O)c1c2c(c[n+]([O-])c1C)C(=O)C(NCc1ccccc1)=CC2=O	1.12 µM	3.61	1.19 µM	2.54 µM	0.512 µM	> 25.8	1.06	2.56	2.4 µM	8.13 µM	0.425 µM	1.65	0.274 µM	1.91	0.996 µM	3.79 µM	0.885 µM	2.15 µM	0.257 µM	0.734 µM
N#CC(NC12CC3CC(CC(C3)C1)C2)c1ccccc1 (stereo not drawn)		> 100		> 100 µM		> 100		> 100		> 100 µM		> 100		> 100		> 100 µM		> 100 µM		> 100 µM
C[C@H]1O[C@@H](O[C@H]2[C@@H](O)C[C@H](O[C@H]3[C@@H](O)C[C@H](O[C@H]4CC[C@]5(C)C6C[C@@H](O)[C@]7(C)[C@@H](C8=CC(=O)OC8)CC[C@]7(O)C6CC[C@@H]5C4)O[C@@H]3C)O[C@@H]2C)C[C@H](O)[C@@H]1O (stereo partly drawn)	0.0163 µM	0.0581	0.0246 µM	0.0928 µM	0.0216 µM	0.153	0.0377	0.124	0.0311 µM	4.3 µM	0.0197 µM	0.0748	0.0573 µM	0.783	0.117 µM	0.377 µM	0.0595 µM	0.233 µM	0.101 µM	0.237 µM
N#Cc1cc(-c2ccccc2)[nH]c1-c1nccc2ccccc12	13.9 µM	> 100	10.1 µM	> 100 µM	14 µM	> 100	5.86	> 100	37.6 µM	> 100 µM	18.1 µM	> 100	11.8 µM	> 100	4.35 µM	53.2 µM	7.07 µM	> 100 µM	7.81 µM	60.1 µM
CC(C)[C@@H]1NC(=O)[C@]2(C)CSC(=N2)c2csc(n2)CNC(=O)C[C@@H](/C=C/CCS)OC1=O	0.0383 µM	20.9	0.397 µM	> 100 µM	0.276 µM	> 100	0.198	> 100	0.0471 µM		0.0332 µM	> 100	0.0577 µM	> 100	0.563 µM	6.62 µM	0.0358 µM	0.51 µM	0.0537 µM	2.15 µM
CC(/C=C/C=C/C=C/C=C/C=C/C(O)=C1/C(=O)C(CCC(=O)O)N(C)C1=O)=C\C(C)C(OC1CC(O)C(O)C(C)O1)C(C)C (stereo not drawn)		10.5		7.1 µM		8.47		12.4		32.3 µM		10.1		16.6		9.25 µM		14.8 µM		6.66 µM
Clc1ccc(N/N=C/c2ccccn2)nc1	0.518 µM	> 100	0.554 µM	> 55 µM	0.332 µM	> 100	0.352	> 100	3.39 µM	> 100 µM	0.379 µM	> 42.7	0.578 µM	> 100	0.462 µM	18.7 µM	0.452 µM	> 100 µM	0.636 µM	> 23.6 µM
Nc1nn(C(=O)Nc2ccc(Cc3ccccc3)cc2)c2ccc(Cl)cc12	5.76 µM	> 89.2	12.4 µM	> 66.3 µM	3.08 µM	> 58.7	5.85	98.8	14.4 µM	44.3 µM	0.0658 µM	15.3	2.87 µM	> 66.5	5.21 µM	47.7 µM	0.122 µM	19.9 µM	10.1 µM	> 100 µM
Cc1ccccc1NC(=O)N/C(N)=N/c1nc2ccccc2s1	0.0871 µM	> 100	0.128 µM		0.0402 µM	> 100		> 100	0.0494 µM	> 100 µM	0.113 µM	> 100	0.059 µM	> 100	0.0402 µM	2.46 µM	0.0292 µM	1.17 µM	> 100 µM	> 100 µM
C=C1C(=O)O[C@H]2[C@H]1CC/C(COC(=O)NCc1c[nH]c3ccc(OC)cc13)=C\CC[C@@]1(C)O[C@@H]21	3.26 µM	15	0.441 µM	1.91 µM	0.152 µM	1.07	2.07	6.2	2.75 µM	16.2 µM	3.76 µM	16.7	1.07 µM	2.59	0.266 µM	1.52 µM	10.4 µM	22.3 µM	2.02 µM	5.01 µM
COc1ccccc1/C=C1\CCC(CN(C)C)C1=O (stereo not drawn)		40.6		28.1 µM		8.47		38.9		> 45.8 µM		44.5		18		21.1 µM		29.7 µM		25 µM
COc1cccc(C2=NN(C(C)=O)C(c3cc(OC)c(OC)c(OC)c3)C2)c1 (stereo not drawn)	6.15 µM	> 100	5.57 µM	> 100 µM	0.921 µM	5.61	4.96	> 100	1.36 µM	5.11 µM	2.14 µM	11.2	1.71 µM	> 100	1.08 µM	4.36 µM	0.576 µM	3.98 µM	> 100 µM	> 100 µM
Oc1ccc(Cl)cc1Cc1cc(Cl)cc(Cc2cc(Cl)ccc2O)c1O		10.6		9.61 µM		15.3		7.19		7.71 µM		4.96		7.7		5.49 µM		7.36 µM		5.18 µM
CN(C)c1cc2c(Nc3ccc4nc(Cc5ccccc5)[nH]c4c3)ncnc2cn1	11.8 µM	> 25	> 18.2 µM	> 25 µM	> 18.7 µM	> 25	8.68	> 25	> 17.6 µM	> 25 µM	13.1 µM	> 25	> 25 µM	> 25	11.4 µM	> 25 µM	> 12.7 µM	> 18.9 µM	> 15.3 µM	> 25 µM
S=C(Nc1ccc(-c2nc3ccccc3s2)cc1)Nc1ccccn1	27 µM	> 100	14.9 µM	> 100 µM	25.5 µM	> 100	12.2	> 50.1	21.5 µM	59.2 µM	41.2 µM	> 100	23.6 µM	> 71.7	33.8 µM	> 100 µM	24.5 µM	66.3 µM	31.8 µM	> 72 µM
COc1c(Nc2ncc(Cl)c(N[C@@H]3[C@H]4C=CC(C4)[C@@H]3C(N)=O)n2)ccc2c1CC[C@@H](N1CCOCC1)CC2	4.02 µM	17.5	3.66 µM	14.8 µM	5.25 µM	39.2	1.3	10.2	1.88 µM	9 µM	4.19 µM	18.2	3.94 µM	23.7	4.28 µM	28.5 µM	4.47 µM	17.8 µM	4.81 µM	19.8 µM
O=c1oc2c(Br)c(O)c(Br)cc2c2ccccc12		87.1		75.3 µM		65.4		67.4		66.2 µM		57		50.4		75.4 µM		> 100 µM		61.7 µM
CCNC(=O)Nc1ccc(-c2nc3c(c(N4CCOC[C@@H]4C)n2)CCN(C2COC2)C3)cc1	0.354 µM and 0.384 µM	> 100	0.175 µM and 0.115 µM	1.96 µM and 1.79 µM	0.525 µM and 0.393 µM	> 100	0.323	> 9.65	0.155 µM and 0.146 µM	0.804 µM and 0.93 µM	0.236 µM and 0.13 µM	> 100	0.166 µM and 0.106 µM		0.286 µM and 0.218 µM	49 µM and > 8.49 µM	0.158 µM and 0.166 µM	1.43 µM and 1.84 µM	0.232 µM and 0.287 µM	2.74 µM and 3.92 µM
NC(=O)Cc1ccccc1Oc1nccc(-c2c(-c3ccc(F)cc3)ncn2C2CCNCC2)n1	> 25 µM	> 25	> 25 µM	> 25 µM	> 25 µM	> 25	> 25	> 25	> 9.24 µM	> 25 µM	> 25 µM	> 25	> 25 µM	> 25	> 25 µM	> 25 µM	> 25 µM	> 25 µM	> 25 µM	> 25 µM
